Data: patent US10919938B2, “Modified cyclopentapeptides and uses thereof” (TECHNISCHE UNIVERSITÄT MÜNCHEN, priority 2014, dated 2021)
Where two headings read alike, the source gives them in different places. Non-standard residues stand in square brackets, D forms with d. Residues, ends and D or L forms follow the SMILES beside them. Groups on a side chain read outwards from the residue. *: point of attachment. DOTA(Ga) = O=C1CN2CCN3CCN(CC(=O)*)CCN(CC2)CC(=O)[O][Ga]([O]1)[O]C(=O)C3; DOTA = O=C(O)CN1CCN(CC(=O)O)CCN(CC(=O)*)CCN(CC(=O)O)CC1; 2Nal = N[C@@H](Cc1ccc2ccccc2c1)C(=O)O; dNMeOrn = CN[C@H](CCCN)C(=O)O; 4Amb = NCc1ccc(C(=O)O)cc1; 4Abz = Nc1ccc(C(=O)O)cc1; Ahx = NCCCCCC(=O)O

What was measured:
hCXCR4 [1] = molecular target: T1, hCXCR4 (Homo sapiens, UniProt P61073); details: stated in text as had been shown; cited from earlier work
T1 construct: endogenous in cells; host or cells: Jurkat human T lymphocyte cells
T1 sequence (P61073 whole entry): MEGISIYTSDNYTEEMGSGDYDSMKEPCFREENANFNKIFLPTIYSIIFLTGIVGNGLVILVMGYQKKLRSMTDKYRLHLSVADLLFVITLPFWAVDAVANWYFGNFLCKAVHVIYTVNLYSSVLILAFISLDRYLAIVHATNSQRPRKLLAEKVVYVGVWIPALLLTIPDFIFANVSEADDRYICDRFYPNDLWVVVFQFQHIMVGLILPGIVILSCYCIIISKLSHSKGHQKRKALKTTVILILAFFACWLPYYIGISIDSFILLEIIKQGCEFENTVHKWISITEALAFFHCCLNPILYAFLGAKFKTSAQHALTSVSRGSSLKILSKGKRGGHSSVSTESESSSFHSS

hCXCR4 [2] = molecular target: T1, hCXCR4; assay: Determination of IC50: competition against [^125I]FC-131 on Jurkat cells; assay type: binding; details: hCXCR4-expressing Jurkat T-cell leukemia cells, [^125I]FC-131 as radioligand, mean ± SD
Method: (§1) After washing twice with 400 piL of cold PBS, the amount of bound radioligand was quantified using a γ-counter. Nonspecific binding was determined in the presence of 1 μM FC131. IC50 values were calculated using the PRISM 4 program (Graph Pad Software, San Diego, Calif.).

hCXCR4 [3] = molecular target: T1, hCXCR4; assay: Determination of inverse IC50: radioiodinated peptides against standard competitor FC-131 on Jurkat cells; assay type: binding; details: combining IC50 and inverse IC50 assays
Method: as §1
Experiments were performed in analogy the determination of IC50.

[4] = system: Daudi (high CXCR4) and SU-DHL-8 (low CXCR4) xenografts; assay: Dual tracer biodistribution study in tumor bearing SCID mice; details: i.v., 1 h p.i.
Method: (§6) For the induction of tumor growth, female CB-17 SCID mice (6-8 weeks, Charles River, Sulzfeld, Germany) were injected subcutaneously with app. 5×10^6 Daudi (right shoulder) or SU-DHL-8 (left shoulder) cells suspended in 100 μL of a 1:1 (v/v) mixture of serum free culture medium and Matrigel (BD Biosciences, Heidelberg, Germany). Within 10-21 days, solid palpable tumors had grown (100-800 mg), and the animals were used for the experiments.
(§7) The animals were sacrificed 90 min post injection (p.i.), and the organs of interest were dissected. The radioactivity was measured in weighted tissue samples using a γ-counter. Data are expressed in % ID/g tissue (mean±SD).

[5] = Determination of lipophilicity (octanol/PBS partition); assay type: physicochemical; details: octanol / PBS pH 7.4, radiolabeled peptide
Method: To a solution of app. 2 kBq of radiolabeled peptide in 500 tiL of PBS (pH 7.4), 500 μL of octanol were added (n=6). Vials were vortexed vigorously for 3 min. To achieve quantitative phase separation, the vials were centrifuged at 14,000×g for 6 min in a Biofuge 15 (Heraeus Sepatech, Osterode, Germany). The activity concentrations in 100 μL-samples of both the aqueous and the organic phase were measured in a γ-counter. Both the partition coefficient Pow, which is defined as the molar concentration ratio of a single species A between octanol and an aqueous phase at equilibrium, and log Pow, which is an important parameter used to characterize lipophilicity of a compound, were calculated.

[6] = system: CXCR4 expressing cell lines; assay: Dual tracer internalization studies in various human cancer cell lines; assay type: cell-based; details: in all cell lines
Method: (§2) The total sample volume was 250 μL. After incubation, the tubes were centrifuged (3 min, 1300 rcf, Megafuge 1.0, Heraeus Thermo Scientific), the supernatant was carefully removed and combined with 200 μL of ice cold HBSS used for washing the cells (free radioligand). To remove surface bound (acid releasable) radioactivity, cells were then washed twice with ice cold acid wash buffer (0.02 M NaOAc in saline buffered with AcOH to pH=5). Finally, the amount of internalized activity in the cell pellet as well as the fraction of free and acid releasable ^68Ga-activity were determined using a γ-counter.
2·10^5 cells per well. On the day of the experiment, the culture medium was removed and the cells were washed once with 250 μL of unsupplemented medium before being left to equilibrate in 200 μL of assay medium at 37° C. for a minimum of 15 min before the experiment. […] (n=3 wells, respectively, per time point). Incubation was terminated by placing the plate on an ice pack for app. 1 min and by subsequent removal of the incubation medium. Cells were thoroughly rinsed with 250 μL of HBSS. After washing twice with 250 μL of ice cold acid wash buffer (0.02 M NaOAc buffered with AcOH to pH=5), cells were lysed with 250 μL of 1 N NaOH. […] Quantification of the amount of free, acid-releasable and internalized activity was performed as described.

SUDHL-8 cells = assay: Dual tracer internalization study (suspension cells), SUDHL-8; assay type: cell-based, human; details: SUDHL-8, 30 min, 37° C., corrected for non-specific binding (100 μM AMD3100)
Method: as §2

Jurkat cells [7] = assay: Dual tracer externalization study (suspension cells), Jurkat; assay type: cell-based, human
Method: (§3) To ensure receptor integrity, no acid wash was performed after this initial internalization incubation. Then, to determine the extent of ligand recycling, two different experiments were performed. In the experiment allowing ligand recycling, 250 μL of assay medium were added to each well. […] Experiments were carried out in triplicate for both experimental conditions. Subsequently, the cells were incubated for 5, 15, 30 and 60 minutes at 37° C. Then, the tubes were centrifuged, the supernatant was removed and combined with 250 μL of HBSS used for washing the cells. This fraction represents the amount of externalized ligand. The following steps, i.e. acid wash and quantification of the remaining cellular activity, were performed as described for the internalization experiment.

Daudi cells [8] = assay: Dual tracer internalization study (suspension cells), Daudi; assay type: cell-based, human; details: 30 min, 37° C., corrected for non-specific binding (100 μM AMD3100)
Method: as §2

MCF-7 cells [9] = assay: Dual tracer externalization study (adherent cells), MCF-7; assay type: cell-based, human
Method: (§4) In the experiment allowing ligand recycling 250 µL of assay medium were added to the wells (n=3). […] Subsequently, cells were incubated at 37° C. for 5, 15, 30 and 60 min, respectively. The supernatant was removed and combined with 250 μL of HBSS used for rinsing the cells. This fraction represents the amount of externalized ligand at the respective time point. The following lysis of the cells was performed as desribed for the internalization experiment.

Daudi cells [10] = assay: Dual tracer externalization study (suspension cells), Daudi; assay type: cell-based, human
Method: as §3

HT-29 cells [11] = assay: Dual tracer internalization study (adherent cells), HT-29; assay type: cell-based, human; details: HT-29, 30 min, 37° C., corrected for non-specific binding (100 μM AMD3100)
Method: (§5) 2·10^5 cells per well. On the day of the experiment, the culture medium was removed and the cells were washed once with 250 μL of unsupplemented medium before being left to equilibrate in 200 μL of assay medium at 37° C. for a minimum of 15 min before the experiment. […] (n=3 wells, respectively, per time point). Incubation was terminated by placing the plate on an ice pack for app. 1 min and by subsequent removal of the incubation medium. Cells were thoroughly rinsed with 250 μL of HBSS. After washing twice with 250 μL of ice cold acid wash buffer (0.02 M NaOAc buffered with AcOH to pH=5), cells were lysed with 250 μL of 1 N NaOH. The lysate was transferred to vials and combined with 250 μL of HBSS used for rinsing the wells. Quantification of the amount of free, acid-releasable and internalized activity was performed as described.

Jurkat cells [12] = assay: Dual tracer internalization study (suspension cells), Jurkat; assay type: cell-based, human
Method: as §2

DU-145 cells = assay: Dual tracer internalization study (adherent cells), DU-145; assay type: cell-based, human; details: DU-145, 30 min, 37° C., corrected for non-specific binding (100 μM AMD3100)
Method: as §5

SH-SY5Y cells [13] = assay: Dual tracer internalization study (adherent cells), SH-SY5Y; assay type: cell-based, human; details: 30 min, 37° C., corrected for non-specific binding (100 μM AMD3100)
Method: as §5

SH-SY5Y cells [14] = assay: Dual tracer externalization study (adherent cells), SH-SY5Y; assay type: cell-based, human
Method: as §4

[15] = system: Daudi (high CXCR4) and SU-DHL-8 (low CXCR4) xenografts; details: mouse, in vivo, iv
Method: as §6, §7

HT-29 cells [16] = assay: Dual tracer externalization study (adherent cells), HT-29; assay type: cell-based, human
Method: as §4

MCF-7 cells [17] = assay: Dual tracer internalization study (adherent cells), MCF-7; assay type: cell-based, human; details: MCF-7, 30 min, 37° C., corrected for non-specific binding (100 μM AMD3100)
Method: as §5

[18] = recycling allowed (medium only)
[19] = recycling inhibited (100 μM AMD3100)

Which IC50 (hCXCR4 [1]) does the source give for 3-iodo-D-Tyr^1-FC-131 here?
Its IC50 is 1.3 nM.

For `CN1C(=O)[C@@H](Cc2ccc(O)cc2)NC(=O)CNC(=O)[C@H](Cc2ccc3ccccc3c2)NC(=O)[C@H](CCCNC(=N)N)NC(=O)[C@H]1CCCNC(=O)c1ccc(NC(=O)CCCCCNC(=O)CN2CCN3CCN4CCN(CC2)CC(=O)[O][Ga]([O]C(=O)C3)[O]C(=O)C4)cc1` [yorn′(ABS, Ahx, DOTA, Ga)RNalG] (cyclo([2Nal]G[dY][dNMeOrn]([4Abz-Ahx-DOTA(Ga)])R)), which IC50 (hCXCR4 [2]) is on record?
The IC50 was 30.3 ± 6.52 nM.

With `CN1C(=O)[C@@H](Cc2ccc(O)cc2)NC(=O)CNC(=O)[C@H](Cc2ccc3ccccc3c2)NC(=O)[C@H](CCCNC(=N)N)NC(=O)[C@H]1CCCNC(=O)c1ccc(CNC(=O)CN2CCN3CCN4CCN(CC2)CC(=O)[O][Ga]([O]C(=O)C3)[O]C(=O)C4)cc1` [yorn′(AMBS, DOTA, Ga)RNalG] (cyclo([2Nal]G[dY][dNMeOrn]([4Amb-DOTA(Ga)])R)) as the compound, how does the “increase in CXCR4 affinity by (radio)iodination, factor” value (hCXCR4 [3]) read?
The value was about 20.

For `CN1C(=O)[C@@H](Cc2ccc(O)cc2)NC(=O)CNC(=O)[C@H](Cc2ccc3ccccc3c2)NC(=O)[C@H](CCCNC(=N)N)NC(=O)[C@H]1CCCNC(=O)c1ccc(CNC(=O)CN2CCN(CC(=O)O)CCN(CC(=O)O)CCN(CC(=O)O)CC2)cc1` [yorn′(AMBS, DOTA, ^68Ga)RNalG, metal not drawn] (cyclo([dY][dNMeOrn]([4Amb-DOTA])R[2Nal]G)), which “tumor-to-non-tumor ratios (in words)” value [4] is on record?
Its value is “comparable”.

Which “Log PO/PBS” value [5] does the source give for [^125I]yorn′(ABS, Avs, DOTA, Lu)RNalG here?
Its value is −1.23.

For [^125I]yorn′(ABS, DOTA, In)RNalG, which “Log PO/PBS” value [5] is on record?
The value was −1.37.

With [^125I]yorn′(ABS, G, DOTA, Lu)RNalG as the compound, how does the “Log PO/PBS” value [5] read?
Its value is −1.28.

Which results are given for [^125I]yorn′(AMBS, DOTA, Ga)RNalG?
internalization compared to yorn′(AMBS, DOTA, ^68Ga)RNalG (in words) [6]: significantly higher internalization; Internalization efficiency (internalized activity in % of total cellular activity) (SUDHL-8 cells): 29.9 ± 5.2 % of total cellular activity; Residual internalized activity after a 60 min externalization incubation (Jurkat cells [7]; [18]): 8.0 ± 2.0 % of total cellular activity at t = 0; Residual internalized activity after a 60 min externalization incubation (Jurkat cells [7]; [19]): 3.7 ± 1.3 % of total cellular activity at t = 0; Internalization efficiency (internalized activity in % of total cellular activity) (Daudi cells [8]): 51.3 ± 4.4 % of total cellular activity; Residual internalized activity after a 60 min externalization incubation (MCF-7 cells [9]; MCF-7, recycling allowed (medium only)): 10.4 ± 1.4 % of total cellular activity at t = 0; Residual internalized activity after a 60 min externalization incubation (MCF-7 cells [9]; MCF-7, recycling inhibited (100 μM AMD3100)): 8.7 ± 1.1 % of total cellular activity at t = 0; Residual internalized activity after a 60 min externalization incubation (Daudi cells [10]; [18]): 14.5 ± 2.0 % of total cellular activity at t = 0; Residual internalized activity after a 60 min externalization incubation (Daudi cells [10]; [19]): 7.0 ± 0.5 % of total cellular activity at t = 0; Internalization efficiency (internalized activity in % of total cellular activity) (HT-29 cells [11]): 77.9 ± 4.6 % of total cellular activity; fraction of membrane bound activity versus internalized activity (in words) (Jurkat cells [12]; Jurkat cells, comparable for the other cell lines): considerably higher; Internalization efficiency (internalized activity in % of total cellular activity) (Jurkat cells [12]; Jurkat, 30 min, 37° C., corrected for non-specific binding (100 μM AMD3100)): 27.4 ± 2.0 % of total cellular activity; Internalization efficiency (internalized activity in % of total cellular activity) (DU-145 cells): 69.1 ± 18.2 % of total cellular activity; Internalization efficiency (internalized activity in % of total cellular activity) (SH-SY5Y cells [13]): 57.3 ± 7.1 % of total cellular activity; Residual internalized activity after a 60 min externalization incubation (SH-SY5Y cells [14]; [18]): 11.2 ± 2.5 % of total cellular activity at t = 0; Residual internalized activity after a 60 min externalization incubation (SH-SY5Y cells [14]; [19]): 7.8 ± 1.0 % of total cellular activity at t = 0; tumor-to-non-tumor ratios (in words) [15]: comparable; Residual internalized activity after a 60 min externalization incubation (HT-29 cells [16]; HT-29, recycling allowed (medium only)): 13.5 ± 2.6 % of total cellular activity at t = 0; Residual internalized activity after a 60 min externalization incubation (HT-29 cells [16]; HT-29, recycling inhibited (100 μM AMD3100)): 10.5 ± 2.5 % of total cellular activity at t = 0; ligand recycling (in words) (HT-29 cells [16]; HT-29 cells, nearly identical results for the other cell lines): almost no ligand recycling; Log PO/PBS [5]: −1.56; Internalization efficiency (internalized activity in % of total cellular activity) (MCF-7 cells [17]): 37.6 ± 3.7 % of total cellular activity

Which “Log PO/PBS” value [5] does the source give for [^125I]yorn′(AMBS, DOTA, In)RNalG here?
Its value is −1.39.

With [^125I]yorn′(AMBS, DOTA, Lu)RNalG as the compound, how does the “Log PO/PBS” value [5] read?
The value was −1.38.

For “cyclo(-D-Tyr^1[^125I]-Arg^2-Arg^3-Na1^4-Gly^5 [[^125I]FC-131, reference compound]”, which “Log PO/PBS” value [5] is on record?
Its value is −0.35.

With yorn′(ABS, Ahx, DOTA, In)RNalG as the compound, how does the IC50 (hCXCR4 [2]) read?
The IC50 was 26.5 ± 22.6 nM.

For yorn′(ABS, G, DOTA, Ga)RNalG, which IC50 (hCXCR4 [2]) is on record?
The IC50 was 16.7 ± 3.28 nM.

Which IC50 (hCXCR4 [2]) does the source give for yorn′(AMBS, DOTA, In)RNalG here?
The IC50 was 44.9 ± 10.4 nM.

For yorn′(DOTA, In)RNalG, which IC50 (hCXCR4 [2]) is on record?
The IC50 was over 1000 nM.
